Question: Which melting point does the source give for `COc1ccc(Cl)cc1C(=O)NCCc1ccc(-c2ccc(OC(C)(C)C(=O)O)cc2)cc1` here?
Answer: The melting point was 145 °C.

Question: Which melting point does the source give for `CCCCCCCCCCCCCCCCCCNC(=O)OCC(CNS(=O)(=O)CCCCl)NC(=O)OC(C)(C)C` (configuration not stated) here?
Answer: Its melting point is 112 to 115 °C.

Question: With `COC(=O)CC(c1ccccc1)N1C(=O)c2ccccc2C1=O` (configuration not stated) as the compound, how does the melting point read?
Answer: The melting point was 75 to 76 °C.

Question: For `O=C(O)[C@@H]1CN(C(=O)N(c2ccccc2)c2cccc(Cl)c2)CCN1C(=O)N(c1ccccc1)c1cccc(Cl)c1`, which melting point is on record?
Answer: The melting point was 200 to 203 °C.

Question: For `CC(CC(=O)c1ccc(Br)cc1)C(=O)N1CCCC1C(=O)O` (configuration not stated), which melting point is on record?
Answer: Its melting point is 136 to 138 °C.

Question: Which melting point does the source give for `O=C1CCCN1CCn1c(=O)[nH]c2ncc(-c3ccc(-c4nc[nH]n4)cc3)nc21` here?
Answer: The melting point was 300 to 301 °C.

Question: For `CCOC(=O)c1cnc2c(c1)N(Cc1cc(F)ccc1F)CCN2`, which melting point is on record?
Answer: The melting point was 124 to 125 °C.

Question: Which melting point does the source give for `Cc1ncc(CSC(=O)c2ccccc2)c(C=O)c1O` here?
Answer: The melting point was 127 to 130 °C.

Question: With `CCS(=O)(=O)Oc1cc2c(C)c(CCN3CCN(c4ccccc4OC)CC3)c(=O)oc2cc1OC` as the compound, how does the melting point read?
Answer: The melting point was 148 to 150 °C.

Question: Which melting point does the source give for `O=C(c1ccc(Cl)c(Cl)c1)N1C(=O)N2CCCC2(Cc2ccc(Br)cc2)C1=O` (configuration not stated) here?
Answer: Its melting point is 158 °C.

Question: With `Cc1c(C)c(N2CCN(c3ccc(S(C)(=O)=O)cc3)CC2)c(C)c2c1OC(C)C2` (configuration not stated) as the compound, how does the melting point read?
Answer: Its melting point is 228 to 233 °C.

Question: With `CCCCCCOCCCCCCCCCCCSCCCO` as the compound, how does the melting point read?
Answer: The melting point was 27 to 29 °C.

Question: Which melting point does the source give for `COc1c(Cl)c(-c2ccc(C(C)C)cc2)cc2oc(=O)c(C)c(C)c12` here?
Answer: The melting point was 168 °C.

Question: With `CC(C)n1nc(-c2c(OCCF)nc(N)nc2-c2ccccc2)ccc1=O` as the compound, how does the melting point read?
Answer: The melting point was 129 to 130 °C.

Question: For `CC(C)(C)OC(=O)Nc1cc(N2CCC(OCCOC3CCCCO3)CC2)c(-c2ccc(F)cc2)cc1[N+](=O)[O-]` (racemic), which melting point is on record?
Answer: Its melting point is 144 to 146 °C.

Question: For `COc1cc(Br)ccc1C12CC3CC(CC(C3)C1)C2`, which melting point is on record?
Answer: The melting point was 159 to 160 °C.

Question: With `COC(=O)c1cc(OC)ccc1Oc1cc(Cl)ccc1[N+](=O)[O-]` as the compound, how does the melting point read?
Answer: The melting point was 114 to 116 °C.

Question: With `COc1ccc(C2C(Oc3ccccc3)C(=O)N2c2ccc(C(=O)O)cc2)cc1` (configuration not stated) as the compound, how does the melting point read?
Answer: The melting point was 268 °C.

Question: With `CCc1ccc(Nc2nnc(Cc3ccnc(O)c3)c3ccccc23)cc1Br` as the compound, how does the melting point read?
Answer: The melting point was 133 to 135 °C.

Question: With `O=C(O)c1c(F)c(F)cc([N+](=O)[O-])c1F` as the compound, how does the melting point read?
Answer: The melting point was 98 to 99 °C.

Question: Which melting point does the source give for `N#CC=C1CCN(c2ccc(N3CC(CNC(=O)C4CCCN4)OC3=O)cc2F)CC1` (configuration not stated) here?
Answer: Its melting point is 155 °C.

Question: Which melting point does the source give for `CS(=O)(=O)n1cc(-c2ccccc2)c(=O)n1-c1ccccn1` here?
Answer: Its melting point is 112 to 114 °C.

Question: For `CCCCCCCCCCCCCCCCCC(=O)c1cc(C(=O)OCC)ccc1O`, which melting point is on record?
Answer: Its melting point is 74 °C.

Question: For `COc1ccc2c(c1)C(Cl)(C(F)(F)F)OC(=O)N2` (configuration not stated), which melting point is on record?
Answer: Its melting point is 112 to 114 °C.

Question: For `COc1cccc2c(CN3CC=C(CCc4ccccc4)CC3)c[nH]c12`, which melting point is on record?
Answer: Its melting point is 131 to 133 °C.

Question: With `Cn1c(C(=O)Nc2cc3c(cn2)[nH]c2ccccc23)cc2ccccc21` as the compound, how does the melting point read?
Answer: The melting point was 300 to 301 °C.

Question: For `CC(Cc1ccc(OC(C)C)cc1)NCC(O)c1cccc(Cl)c1` (configuration not stated), which melting point is on record?
Answer: The melting point was 58 to 61 °C.

Question: Which melting point does the source give for `C=CCNCC(O)COc1cccc2c1CC(=O)N2` (configuration not stated) here?
Answer: Its melting point is 124 to 127 °C.

Question: Which melting point does the source give for `COCOc1cc(C=O)ccc1OCc1nc(-c2ccco2)oc1C` here?
Answer: The melting point was 102 to 103 °C.

Question: Which melting point does the source give for `CCOC(=O)C(=O)c1c[nH]c2c1ccc1c3ccccc3[nH]c12` here?
Answer: The melting point was > 295 °C.

Question: With `CNC(=O)c1ccc(C)c(-n2c(C)cc(OCc3ccccc3CNC(=O)Nc3cc(C(C)(C)C)nn3-c3ccc(Cl)c(O)c3)c(Cl)c2=O)c1` as the compound, how does the melting point read?
Answer: Its melting point is 201 to 203 °C.

Question: Which melting point does the source give for `CSc1nnc(C(N)(c2ccc(Cl)cc2)c2ccc3c(c2)c(-c2cccc(Cl)c2)nc2nnnn23)n1C` (configuration not stated) here?
Answer: Its melting point is 150 °C.

Question: With `CCOC(=O)C(CC)n1c(NC(=O)c2cccs2)nc2cc(C(=O)N(C)C3CCCCC3)ccc21` (configuration not stated) as the compound, how does the melting point read?
Answer: Its melting point is 82 to 84 °C.

Question: Which melting point does the source give for `C1=NNSc2ccccc21` here?
Answer: The melting point was 314 °C.

Question: Which melting point does the source give for `CN1C(=O)CC[C@]2(C)c3ccc(-c4cccc(F)c4F)cc3CC[C@@H]12` here?
Answer: Its melting point is 147 to 148 °C.

Question: With `Cc1c(NC(=O)CC(C)(C)C)cc2c(c1C)OC(C)(C)C2c1ccccc1OC(F)(F)F` (configuration not stated) as the compound, how does the melting point read?
Answer: The melting point was 155 to 156 °C.

Question: Which melting point does the source give for `CC(C)(c1ccc(OC#N)cc1)c1ccc(OC#N)cc1` here?
Answer: Its melting point is 82 °C.
